US11242361B2 (Proteostasis Therapeutics, Inc., priority 2013, dated 2022)
Where a name gives a salt, the structure may show the parent alone.

The molecules below were run against USP14 (Homo sapiens (Human), UniProt P54578) (assay: USP14 Inhibition Assay). Conditions: average value from a minimum of two experimental determinations.
Type: biochemical
Protocol: Example 17: USP14 Inhibition Assay
“I” in the Table below designates an IC50 of >5 μM, “II” in the Table below designates and IC50 between 0.5 and 5 μM, and “III” designates an IC50<0.5 μM. The IC50 values in the Table below represent the average value from a minimum of two experimental determinations.

Chain of USP14 (P54578 whole entry, looked up): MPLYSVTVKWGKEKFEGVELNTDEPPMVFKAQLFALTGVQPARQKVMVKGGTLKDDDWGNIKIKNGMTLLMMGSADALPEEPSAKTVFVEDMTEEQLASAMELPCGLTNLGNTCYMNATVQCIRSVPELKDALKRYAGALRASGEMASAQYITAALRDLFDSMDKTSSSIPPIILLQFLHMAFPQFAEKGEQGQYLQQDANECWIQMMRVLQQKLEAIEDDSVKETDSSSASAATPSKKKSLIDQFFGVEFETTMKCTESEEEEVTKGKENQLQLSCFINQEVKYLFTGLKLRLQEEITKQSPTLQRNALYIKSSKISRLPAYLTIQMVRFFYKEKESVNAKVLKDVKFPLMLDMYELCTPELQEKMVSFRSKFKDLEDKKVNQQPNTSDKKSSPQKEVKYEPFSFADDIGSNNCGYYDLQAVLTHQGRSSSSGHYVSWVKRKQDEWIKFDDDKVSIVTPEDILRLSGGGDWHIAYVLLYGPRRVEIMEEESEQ

**Q.** With Cc1c(C(=O)CN2CCC[C@H]2C)c2ncc(Br)cc2n1-c1ccc(C#N)cc1 [Compound 306] as the molecule, how does the “IC50 Category” value read?
**A.** IIII

Same assay, conditions: average value from a minimum of two experimental determinations, read-out: IC50 Category

**Q.** CC(=O)NCc1ccc2c(c1)c(C(=O)CN1CCCCC1)c(C)n2-c1ccc(C#N)cc1 [Compound 183, N-((1-(4-Cyanophenyl)-2-methyl-3-(2-(piperidin-1-yl)acetyl)-1H-indol-5-yl)methyl)acetamide] was tested. Which IC50 did it give?
**A.** < 500 nM

**Q.** With Cc1cnc2c(C(=O)CN3CCCCC3)c(C)n(-c3ccc(C#N)cc3)c2c1 [Compound 184, 4-(2,6-Dimethyl-3-(2-(piperidin-1-yl)acetyl)-1H-pyrrolo[3,2-b]pyridin-1-yl)benzonitrile] as the molecule, how does the IC50 read?
**A.** < 500 nM

**Q.** Cc1c(C(=O)CN2CCCCC2)c2ccc(CN)cc2n1-c1ccc(Cl)cc1 [Compound 185, 1-(6-(Aminomethyl)-1-(4-chlorophenyl)-2-methyl-1H-indol-3-yl)-2-(piperidin-1-yl)ethan-1-one] was tested. Which IC50 did it give?
**A.** < 500 nM

**Q.** How did the IC50 turn out when Cc1c(C(=O)CN2CCCCC2)c2cc(N)ccc2n1-c1ccc(C#N)cc1 [Compound 186, 4-(5-Amino-2-methyl-3-(2-(piperidin-1-yl)acetyl)-1H-indol-1-yl)benzonitrile] was run?
**A.** < 500 nM

**Q.** Cc1c(C(=O)CN2CCCCC2)c2cc(NC(=O)C(C)(C)C)ccc2n1-c1ccc(C#N)cc1 [Compound 187, N-(1-(4-Cyanophenyl)-2-methyl-3-(2-(piperidin-1-yl)acetyl)-1H-indol-5-yl)pivalamide] was tested. Which IC50 did it give?
**A.** < 500 nM

**Q.** Cc1c(C(=O)CN2CCCCC2)c2ccc(CN(C)C)cc2n1-c1ccc(Cl)cc1 [Compound 188, 1-(1-(4-chlorophenyl)-6-((Dimethylamino)methyl)-2-methyl-1H-indol-3-yl)-2-(piperidin-1-yl)ethan-1-one] was tested. Which IC50 did it give?
**A.** < 500 nM

**Q.** How did the IC50 turn out when Cc1cnc2c(C(=O)CN3CCCC(F)C3)c(C)n(-c3ccc(C#N)cc3)c2c1 (stereo not shown) [Compound 189] was run?
**A.** < 500 nM

**Q.** Which IC50 does the source give for Cc1cnc2c(C(=O)CN3CCC(F)CC3)c(C)n(-c3ccc(C#N)cc3)c2c1 [Compound 190] here?
**A.** < 500 nM

**Q.** CC(=O)Nc1ccc2c(c1)c(C(=O)CN1CCCCC1)c(C)n2-c1ccc(C#N)cc1 [Compound 191, N-(1-(4-Cyanophenyl)-2-methyl-3-(2-(piperidin-1-yl)acetyl)-1H-indol-5-yl)acetamide] was tested. Which IC50 did it give?
**A.** < 500 nM

**Q.** With CN(C)c1c(C(=O)CN2CCCCC2)c2ccccc2n1-c1ccc(Cl)cc1 [Compound 192] as the molecule, how does the IC50 read?
**A.** > 5000 nM

**Q.** COc1cc2c(C(=O)CN3CCCCC3)c(C)n(-c3ccc(C#N)cc3)c2cc1OC(F)(F)F [Compound 193] was tested. Which IC50 did it give?
**A.** 500 to 5000 nM

**Q.** With Cc1c(C(=O)CN2CCCCC2)c2ccc(CCC(N)=O)cc2n1-c1ccc(C#N)cc1 [Compound 194, 3-(1-(4-Cyanophenyl)-2-methyl-3-(2-(piperidin-1-yl)acetyl)-1H-indol-6-yl)propanamide] as the molecule, how does the IC50 read?
**A.** < 500 nM

**Q.** Cc1cc2c(nc1C)c(C(=O)CN1CCCCC1)c(C)n2-c1ccc(C#N)cc1 [Compound 195] was tested. Which IC50 did it give?
**A.** < 500 nM

**Q.** Which IC50 does the source give for CC(=O)N(C)c1ccc2c(c1)c(C(=O)CN1CCCCC1)c(C)n2-c1ccc(C#N)cc1 [Compound 196, N-(1-(4-Cyanophenyl)-2-methyl-3-(2-(piperidin-1-yl)acetyl)-1H-indol-5-yl)-N-methylacetamide] here?
**A.** < 500 nM

**Q.** CCOC(=O)Cc1ccc2c(C(=O)CN3CCCCC3)c(C)n(-c3ccc(C#N)cc3)c2c1 [Compound 197] was tested. Which IC50 did it give?
**A.** < 500 nM

**Q.** With Cc1c(C(=O)CN2CCCCC2)c2ccc(CC(=O)O)cc2n1-c1ccc(C#N)cc1 [Compound 198, 2-(1-(4-Cyanophenyl)-2-methyl-3-(2-(piperidin-1-yl)acetyl)-1H-indol-6-yl)acetic Acid] as the molecule, how does the IC50 read?
**A.** < 500 nM

**Q.** How did the IC50 turn out when CNc1ccc2c(c1)c(C(=O)CN1CCCCC1)c(C)n2-c1ccc(C#N)cc1 [Compound 199, 4-(2-Methyl-5-(methylamino)-3-(2-(piperidin-1-yl)acetyl)-1H-indol-1-yl)benzonitrile] was run?
**A.** < 500 nM

**Q.** How did the IC50 turn out when CCOC(=O)CCc1cc2c(nc1C)c(C(=O)CN1CCCCC1)c(C)n2-c1ccc(C#N)cc1 [Compound 200, Ethyl 3-(1-(4-Cyanophenyl)-2,5-dimethyl-3-(2-(piperidin-1-yl)acetyl)-1H-pyrrolo[3,2-b]pyridin-6-yl)propanoate] was run?
**A.** < 500 nM

**Q.** How did the IC50 turn out when Cc1c(C(=O)CN2CCCCC2)c2ccc(CCC(=O)O)cc2n1-c1ccc(C#N)cc1 [Compound 201, 3-(1-(4-Cyanophenyl)-2-methyl-3-(2-(piperidin-1-yl)acetyl)-1H-indol-6-yl)propanoic Acid] was run?
**A.** < 500 nM

**Q.** Which IC50 does the source give for Cc1nc2c(C(=O)CN3CCCCC3)c(C)n(-c3ccc(C#N)cc3)c2cc1CCC(=O)O [Compound 202, 3-(1-(4-Cyanophenyl)-2,5-dimethyl-3-(2-(piperidin-1-yl)acetyl)-1H-pyrrolo[3,2-b]pyridin-6-yl)propanoic Acid Hydrochloride Salt] here?
**A.** < 500 nM

**Q.** Cc1c(C(=O)CN2CCCCC2)c2ccc(CC(N)=O)cc2n1-c1ccc(C#N)cc1 [Compound 203, 2-(1-(4-Cyanophenyl)-2-methyl-3-(2-(piperidin-1-yl)acetyl)-1H-indol-6-yl)acetamide] was tested. Which IC50 did it give?
**A.** < 500 nM

**Q.** Which IC50 does the source give for CCN(CC)C(=O)CCc1cc2c(nc1C)c(C(=O)CN1CCCCC1)c(C)n2-c1ccc(C#N)cc1 [Compound 204, 3-(1-(4-Cyanophenyl)-2,5-dimethyl-3-(2-(piperidin-1-yl)acetyl)-1H-pyrrolo[3,2-b]pyridin-6-yl)-N,N-diethylpropanamide] here?
**A.** < 500 nM

**Q.** CC(=O)OCCc1ccc2c(C(=O)CN3CCCCC3)c(C)n(-c3ccc(C#N)cc3)c2c1 [Compound 205, 2-(1-(4-Cyanophenyl)-2-methyl-3-(2-(piperidin-1-yl)acetyl)-1H-indol-6-yl)ethyl Acetate] was tested. Which IC50 did it give?
**A.** < 500 nM

**Q.** For C=Cc1ccc2c(C(=O)CN3CCCCC3)c(C)n(-c3ccc(C#N)cc3)c2c1 [Compound 206, 4-(2-Methyl-3-(2-(piperidin-1-yl)acetyl)-6-vinyl-1H-indol-1-yl)benzonitrile], which IC50 is on record?
**A.** < 500 nM

**Q.** Cc1c(C(=O)CN2CCCCC2)c2ccc(CCO)cc2n1-c1ccc(C#N)cc1 [Compound 207, 4-(6-(2-Hydroxyethyl)-2-methyl-3-(2-(piperidin-1-yl)acetyl)-1H-indol-1-yl)benzonitrile] was tested. Which IC50 did it give?
**A.** < 500 nM

**Q.** How did the IC50 turn out when Cc1c(C(=O)CN2CCCCC2)c2nc(-n3nccn3)ccc2n1-c1ccc(C#N)cc1 [Compound 208, 4-(2-Methyl-3-(2-(piperidin-1-yl)acetyl)-5-(2H-1,2,3-triazol-2-yl)-1H-pyrrolo[3,2-b]pyridin-1-yl)benzonitrile] was run?
**A.** < 500 nM

**Q.** For Cc1c(C(=O)CN2CCCCC2)c2nc(-n3ccnn3)ccc2n1-c1ccc(C#N)cc1 [Compound 209, 4-(2-Methyl-3-(2-(piperidin-1-yl)acetyl)-5-(1H-1,2,3-triazol-1-yl)-1H-pyrrolo[3,2-b]pyridin-1-yl)benzonitrile], which IC50 is on record?
**A.** < 500 nM

**Q.** For Cc1nc2c(C(=O)CN3CCCCC3)c(C)n(-c3ccc(C#N)cc3)c2cc1CCC(N)=O [Compound 210, 3-(1-(4-Cyanophenyl)-2,5-dimethyl-3-(2-(piperidin-1-yl)acetyl)-1H-pyrrolo[3,2-b]pyridin-6-yl)propanamide], which IC50 is on record?
**A.** < 500 nM

**Q.** Which IC50 does the source give for COC(CNC(=O)CCc1cnc2c(C(=O)CN3CCCCC3)c(C)n(-c3ccc(C#N)cc3)c2c1)OC [Compound 296] here?
**A.** < 500 nM

**Q.** For Cc1c(C(=O)CN2CCCCC2)c2ncc(Br)cc2n1-c1ccc(C#N)cc1 [Compound 297, 4-(6-Bromo-2-methyl-3-(2-(piperidin-1-yl)acetyl)-1H-pyrrolo[3,2-b]pyridin-1-yl)benzonitrile], which IC50 is on record?
**A.** < 500 nM

**Q.** With Cc1c(C(=O)CN2CCCCC2)c2ncc(CC(=O)N3CCCC3)cc2n1-c1ccc(C#N)cc1 [Compound 298, 4-(2-Methyl-6-(2-oxo-2-(pyrrolidin-1-yl)ethyl)-3-(2-(piperidin-1-yl)acetyl)-1H-pyrrolo[3,2-b]pyridin-1-yl)benzonitrile] as the molecule, how does the IC50 read?
**A.** < 500 nM

**Q.** For Cc1c(C(=O)CN2CCCCC2)c2ncc(CCC(=O)NCCCN=[N+]=[N-])cc2n1-c1ccc(C#N)cc1 [Compound 299], which IC50 is on record?
**A.** < 500 nM

**Q.** For Cc1c(C(=O)CN2CCCCC2)c2ncc(C(F)(F)F)cc2n1-c1ccc(C#N)cc1 [Compound 300], which IC50 is on record?
**A.** < 500 nM

**Q.** Which IC50 does the source give for Cc1c(C(=O)CN2CCCCC2)c2ncc(C(F)F)cc2n1-c1ccc(C#N)cc1 [Compound 301, 4-(6-(Difluoromethyl)-2-methyl-3-(2-(piperidin-1-yl)acetyl)-1H-pyrrolo[3,2-b]pyridin-1-yl)benzonitrile] here?
**A.** < 500 nM

**Q.** Cc1c(C(=O)CN2CCC(O)CC2)c2ncc(C(F)(F)F)cc2n1-c1ccc(C#N)cc1 [Compound 302] was tested. Which IC50 did it give?
**A.** < 500 nM

**Q.** With CCN(CCc1cnc2c(C(=O)CN3CCCCC3)c(C)n(-c3ccc(Cl)cc3)c2c1)S(C)(=O)=O [Compound 303, N-(2-(1-(4-Chlorophenyl)-2-methyl-3-(2-(piperidin-1-yl)acetyl)-1H-pyrrolo[3,2-b]pyridin-6-yl)ethyl)-N-ethylmethanesulfonamide] as the molecule, how does the IC50 read?
**A.** < 500 nM

**Q.** For Cc1c(C(=O)CN2CCCCC2)c2ncc(CCC(=O)NCCN=[N+]=[N-])cc2n1-c1ccc(C#N)cc1 [Compound 304], which IC50 is on record?
**A.** < 500 nM

**Q.** How did the IC50 turn out when CCNC(=O)/C=C/c1cnc2c(C(=O)CN3CCCCC3)c(C)n(-c3ccc(C#N)cc3)c2c1 [Compound 305, (E)-3-(1-(4-Cyanophenyl)-2-methyl-3-(2-(piperidin-1-yl)acetyl)-1H-pyrrolo[3,2-b]pyridin-6-yl)-N-ethylacrylamide] was run?
**A.** < 500 nM

**Q.** Cc1c(C(=O)CN2CCC[C@@H]2C)c2ncc(Br)cc2n1-c1ccc(C#N)cc1 [Compound 307] was tested. Which IC50 did it give?
**A.** < 500 nM

**Q.** Cc1c(C(=O)CN2CCCC[C@@H]2C)c2ncc(Br)cc2n1-c1ccc(C#N)cc1 [Compound 308] was tested. Which IC50 did it give?
**A.** < 500 nM

**Q.** How did the IC50 turn out when Cc1c(C(=O)CN2CCCC[C@H]2C)c2ncc(Br)cc2n1-c1ccc(C#N)cc1 [Compound 309] was run?
**A.** < 500 nM

**Q.** How did the IC50 turn out when Cc1c(C(=O)CN2CCCC2(C)C)c2ncc(Br)cc2n1-c1ccc(C#N)cc1 [Compound 310] was run?
**A.** < 500 nM

**Q.** COC1CCN(CC(=O)c2c(C)n(-c3ccc(C#N)cc3)c3cc(Br)cnc23)CC1 [Compound 311] was tested. Which IC50 did it give?
**A.** < 500 nM

**Q.** Cc1c(C(=O)CN2CCC(CO)CC2)c2ncc(Br)cc2n1-c1ccc(C#N)cc1 [Compound 312] was tested. Which IC50 did it give?
**A.** 500 to 5000 nM

**Q.** With Cc1c(C(=O)CN2CC=CCC2)c2ncc(Br)cc2n1-c1ccc(C#N)cc1 [Compound 314] as the molecule, how does the IC50 read?
**A.** 500 to 5000 nM
